Source: paper PMC6010545, “Identification of a Novel Polyamine Scaffold With Potent Efflux Pump Inhibition Activity Toward Multi-Drug Resistant Bacterial Pathogens” (Frontiers in Microbiology, 2018)
“And” between values parts separate entries of the source, which are not always exact repeats. Equal entries are not always repeated. “Also recorded” adds a separate entry of the source. Where two headings read alike, the source gives them in different places. Residues, ends and D or L forms follow the SMILES beside them. *: point of attachment. βNA = c1ccc2cc(N*)ccc2c1

Tests used:
MTT cytotoxicity assay = type: cell-based; details: human, 25 μg mL^-1, 48 h, read-out: percent recovery (cell viability)
Procedure: To assess toxicity of polyamine compounds we used HepG2 human liver carcinoma cells and Hek293T human embryonic kidney epithelial cells. The viability of cell lines was determined using a 3-(4,5-dimethylthiazol-2-yl)-2,5-diphenyltetrazolium bromide (MTT) molecular probe as previously described by our group ([Fleeman et al., 2015]). Briefly, 247, 266, 271 (Hek293T), or 250, 271, 314 (HepG2), alongside control efflux pump inhibitor PaβN, were diluted in 10% DMF from 25 μg mL^-1 to 3 μg mL^-1 using twofold dilutions, before being added to cells in DMEM with 10% FBS and 1% penicillin/streptomycin. Cells were then incubated for 48 h at 37°C with 5% CO2. Following this, viability was assessed by the addition of MTT and measuring the OD570 in a Biotek plate reader. Percent recovery was determined compared to no drug controls.

[1] = system: P. aeruginosa proficient (1419) and deficient (1418) strain; test: Aztreonam combination testing in efflux proficient and deficient strains; type: cell-based; details: strain 1419 (efflux proficient); polyamine 12.5 μg mL^-1, ½ X MIC aztreonam
Procedure: FIGURE 6 Confirming efflux pump inhibition by polyamines using efflux deficient strains. (A) A P. aeruginosa proficient (1419) and deficient (1418) strain were subjected to combination testing of the polyamines at 12.5 μg mL^-1 and ½ X MIC of aztreonam. Fold potentiation was calculated by dividing the CFU mL^-1 for aztreonam only by the CFU mL^-1 of the combined treatment groups. (B) Lead polyamine 247 was assessed for its ability to potentiate the activity of chloramphenicol toward S. aureus strain United States 300 and its norA mutant. Shown is the potentiated chloramphenicol EC90 calculated as described in A. Error bars are shown ± SEM.

[2] = system: tetracycline-resistant P. aeruginosa isolate 1419; test: Checkerboard potentiation assay with tetracycline; type: cell-based, Pseudomonas aeruginosa; details: for EC50: 20 h, inhibitor alone, 25 μg mL^-1 highest concentration tested, read-out: EPI* (inhibitory concentration of efflux pump inhibitor alone)
Procedure: (§1) Scaffold ranking library samples and individual polyamines were screened using checkerboard inhibitory assays to assess the potentiation of tetracycline and chloramphenicol. The test utilized a 96-well plate microtiter assay where the concentration of the scaffold or individual polyamine was decreased from 25 to 0.8 μg mL^-1 (average molarity of mixture samples 65 to 4 μM) along the rows, and the concentration of tetracycline or chloramphenicol was increased from 0.4 to 100 μM across the columns. […] However, with the known antibiotics, we report EC90 values in μM, which more accurately describes purified compounds. Plates were incubated statically at 37°C for 20 h, and the optical density (OD600) was determined using a Synergy 2 plate reader (BioTek). Potentiation modeling (detailed below) was performed to determine fold change in the 50 and 90% effective concentration of tetracycline or chloramphenicol.
(§2) Potentiation was quantified using a mathematical model developed by our group to assess the ability of library samples and individual compounds to effectively enhance the activity of tetracycline or chloramphenicol ([Hoel, 1987]). […] In this way, only libraries and compounds that potentiated tetracycline or chloramphenicol activity were pursued. The model is based on the following equation for modeling the percentage activity of a mixture of two agents with independent action ([Hoel, 1987]):
%Antibiotic & Comp(X1,X2)=%Antibiotic(X1)+%Comp(X2)−%Antibiotic(X1)⋅%Comp(X2)
Here, x1 and x2 are the concentrations of antibiotic (tetracycline or chloramphenicol) and library/compound (Comp) tested, respectively. This equation can be rearranged to model the effective percent activity (EC) of the antibiotic alone, after accounting for compound activity:
Eff%Antibiotic(X1)=%Antibiotic & Compound(X1,X2)−%Compound(X2)/1−%Compound(X2)
Thus, the model-adjusted checkerboards show the antibiotic activity post-potentiation, and from that one can determine the true change in Mic.

P. aeruginosa (1419) [3] = test: Checkerboard potentiation assay with chloramphenicol; type: cell-based; details: increasing polyamine concentration
Procedure: as §1
as §2, with “The model is based on the following equation for modeling the percentage activity of a mixture of two agents with independent action ([Hoel, 1987]):” left out

MRSA (USA300) = test: Potentiation of chloramphenicol, MRSA USA300 and norA mutant; type: cell-based, S. aureus
Procedure: as §1
as §2, with “The model is based on the following equation for modeling the percentage activity of a mixture of two agents with independent action ([Hoel, 1987]):” left out

P. aeruginosa (1419) [4] = test: Bactericidal assessment in combination with tetracycline; details: Pseudomonas aeruginosa, read-out: percent recovery (bacterial viability)
Procedure: Lead agents were screened for bactericidal activity as described by us previously ([Van Horn et al., 2014]; [Fleeman et al., 2015]), with the following modifications. Varying concentrations of tetracycline (0, 12, 25, and 50 μM) were used in combination with the MPC (25 μM) of lead agents 247, 250, 266, 271, and 314 against P. aeruginosa. […] Biofilm experiments were performed similar to those described by us previously ([Fleeman et al., 2015]; [von Salm et al., 2016]), with the following modifications. Polyamine agents 247, 250, 266, 271, and 314 were added at MPC into biofilm containing wells alongside varying concentrations of tetracycline (0, 12, 25, and 50 μM). Cellular viability was determined by serial dilution after a 20-h incubation at 37°C. Values were converted to percent recovery using no treatment controls. All data was generated from three biological replicates and two technical replicates.

P. aeruginosa (1419) [5] = test: Bacterial membrane depolarization (DiSC3 dye); type: cell-based; details: 25 μg mL^-1
Procedure: To determine the level of membrane depolarization by polyamine compounds a 3,3′-dipropylthiadicarbocyanine Iodide (DiSC3) fluorescence dye was used. Exponentially growing cultures were prepared as described above, before being harvested by centrifugation. Cells were next washed in buffer a [5 mM Hepes (pH 7.2), 5 mM glucose] and resuspended to an OD600 of 0.2 in the same buffer containing 100 mM KCL and 2 μM DiSC3. Samples were allowed to equilibrate for 15 min at room temperature to ensure uptake and quenching of the dye in bacterial membranes. Cells were aliquoted into 96-well plates and polyamines were added alongside the known efflux inhibitor PAβN (all at 25 μg mL^-1). Nisin (25 μg mL^-1) was used as a positive control to display depolarization effects. A Biotek plate reader was used to monitor fluorescence of wells, with a 622 nm excitation and 670 nm emission. For graphical representation, the maximum relative fluorescence at 2 min was used for comparison of lead agents to controls.

[6] = HepG2 human liver carcinoma cells
[7] = 25 µg ml-1 TPI, EC50 tetracycline no TPI / with TPI
[8] = 25 µg ml-1 TPI, EC90 tetracycline no TPI / with TPI
[9] = EC50 tetracycline without EPI / with EPI
[10] = EC90 tetracycline without EPI / with EPI
[11] = Hek293T human embryonic kidney epithelial cells, vs solvent only controls

Row | SMILES | FP* (fold potentiation of tetracycline EC50) [2, 9] | FP# (fold potentiation of tetracycline EC90) [2, 10] [fold] | EC50 ([2]; Pseudomonas aeruginosa) [µg/mL] | potentiation of chloramphenicol EC90 (P. aeruginosa (1419) [3]) | FP (fold potentiation of tetracycline EC90) ([2]; EC90 tetracycline no TPL / with TPL at 25 µg ml-1) [fold] | EC90 ([2]; Pseudomonas aeruginosa, Torrey Pines Library alone, 25 µg ml-1 highest tested, read-out: TPL (inhibitory concentration of library alone, EC90)) [µg/mL] | recovery at 48 h, 25 μg mL^-1 (MTT cytotoxicity assay; [6]) [%] | potentiation of aztreonam [1] | FP* (fold potentiation of tetracycline EC50) [2, 7] [fold] | FP# (fold potentiation of tetracycline EC90) [2, 8] [fold] | TPI (inhibitory concentration of polyamine alone) ([2]; 25 µg ml-1 highest tested) [µg/mL] | recovery at 48 h, 25 μg mL^-1 (MTT cytotoxicity assay; [11]) [%] | potentiation of chloramphenicol (MRSA (USA300); norA knockout) | potentiation of chloramphenicol (MRSA (USA300); wild-type USA300) | viability at 25 µg/mL (P. aeruginosa (1419) [4]) [%] | membrane depolarization (DiSC3 fluorescence change) (P. aeruginosa (1419) [5])
1 | NCC[C@@H](CN)NC[C@H](Cc1ccccc1)NCCc1ccccc1 [compound 250] | 7.0 fold | 7.8 | > 25 | – | – | – | 80 | best potentiators of aztreonam | 7 | 7.8 | > 25 | – | – | – | – | –
2 | CNCCCC[C@@H](CN)NC[C@H](Cc1ccccc1)NCCc1ccccc1 [compound 247] | – | – | > 25 | – | – | – | – | – | 5 | 7.5 | > 25 | 84 | little potentiation | marked potentiation of antibiotic activity in a dose responsive manner; also recorded: strongly potentiate chloramphenicol activity | – | –
3 | COC(=O)[C@H]1[C@H]2C[C@@H]3c4[nH]c5cc(OC)ccc5c4CCN3C[C@H]2C[C@@H](OC(=O)c2cc(OC)c(OC)c(OC)c2)[C@@H]1OC [Reserpine, reserpine, reference compound] | 11.2 fold | 1 | > 25 | – | – | – | – | – | – | – | – | – | – | – | – | –
4 | NC(N)=NCCC[C@H](NC(=O)[C@@H](N)Cc1ccccc1)C(=O)Nc1ccc2ccccc2c1 [PAβN, phenylalanine arginine beta naphthalimide, reference compound] (H-Phe-Arg-βNA) | 65.5 fold | 8 | > 25 | – | 8.01 | > 25 | – | – | – | – | – | – | – | – | 76 | strong increase in fluorescence

Now from value to compound, other results behind:

Row | FP* (fold potentiation of tetracycline EC50) [2, 9] | FP# (fold potentiation of tetracycline EC90) [2, 10] [fold] | EC50 ([2]; Pseudomonas aeruginosa) [µg/mL] | potentiation of chloramphenicol EC90 (P. aeruginosa (1419) [3]) | FP (fold potentiation of tetracycline EC90) ([2]; EC90 tetracycline no TPL / with TPL at 25 µg ml-1) [fold] | EC90 ([2]; Pseudomonas aeruginosa, Torrey Pines Library alone, 25 µg ml-1 highest tested, read-out: TPL (inhibitory concentration of library alone, EC90)) [µg/mL] | SMILES | recovery at 48 h, 25 μg mL^-1 (MTT cytotoxicity assay; [6]) [%] | potentiation of aztreonam [1] | FP* (fold potentiation of tetracycline EC50) [2, 7] [fold] | FP# (fold potentiation of tetracycline EC90) [2, 8] [fold] | TPI (inhibitory concentration of polyamine alone) ([2]; 25 µg ml-1 highest tested) [µg/mL] | recovery at 48 h, 25 μg mL^-1 (MTT cytotoxicity assay; [11]) [%] | potentiation of chloramphenicol (MRSA (USA300); norA knockout) | potentiation of chloramphenicol (MRSA (USA300); wild-type USA300) | viability at 25 µg/mL (P. aeruginosa (1419) [4]) [%] | membrane depolarization (DiSC3 fluorescence change) (P. aeruginosa (1419) [5])
5 | 5 fold and 5.0 fold | 7.5 | > 25 | – | – | – | NCCC[C@@H](CN[C@H](CN)Cc1ccccc1)NCCc1ccccc1 [compound 314] | 77 | – | 5 | 7.5 | > 25 | – | – | – | – | –
6 | 6.8 fold | 5.8 | > 25 | highest potentiation values | – | – | CNCCCC[C@H](CN)NC[C@H](Cc1ccccc1)NCCc1ccccc1 [compound 266] | – | – | 6.8 | 5.8 | > 25 | 72 | – | – | – | –
